From patent US6534525B1, “2-substituted piperidine analogs and their use as subtype-selective NMDA receptor antagonists” (Warner-Lambert & Company, priority 1995, dated 2003)

Key:
[1] = molecular target: NMDA receptor subunits 1A/2C (NR1A+NR2C) (Rattus norvegicus, UniProt P35439+Q00961); test: Electrophysiological assay at cloned NMDA receptor subunits expressed in Xenopus oocytes, 1A/2C; format: cell-based; settings: cloned rat NMDA receptor in Xenopus oocytes, two-electrode voltage clamp, currents activated by glutamate and glycine; read-out: Subunits (IC50(μM)) 1A/2C
Method: (§1) Electrophysiological Assays at NMDA Receptor Subunits
(§2) The clones were transformed into appropriate host bacteria and plasmid preparations were made with conventional DNA purification techniques. A sample of each clone was linearized by restriction enzyme digestion and cRNA was synthesized with T3 RNA polymerase. The cRNA was diluted to 400 ng/μl and stored in 1 μl aliquots at −80° C. until injection.
(§3) The Xenopus oocyte Expression System
(§4) Follicle-enclosed oocytes were micro-injected with 1:1 mixtures of cRNA:NR1A+NR2A, 2B, 2C or 2D; injecting ˜2,5, or 20 ng of RNA encoding each receptor subunit. NR1A encoding cRNA was injected alone at ˜20 ng. Oocytes were stored in Barth's medium containing (in mM):NaCl, 88; KCl, 1; CaCl2, 0.41; Ca(NO3)2, 0.33; MgSO4, 0.82 NaHCO3, 2.4; HEPES 5, pH 7.4, with 0.1 mg/ml gentamicin sulphate. While oocytes were still surrounded by enveloping ovarian tissues the Barth's medium was supplemented with 0.1% bovine serum.
(§5) Electrical recordings were made using a conventional two-electrode voltage clamp (Dagan TEV-200) over periods ranging between 3-14 days following injection. […] Drugs were applied by bath perfusion. Using oocytes expressing different subunit combinations of NMDA receptor, NMDA currents were activated by co-application of glutamate and glycine. Inhibitory potency of the novel antagonists was assessed on responses elicited by fixed concentrations of glutamate and glycine, by measuring reductions in current induced by progressively increasing concentrations of antagonists.
(§6) Concentration-inhibition curves were fit with equation 1.
(§7) in which Icontrol is the current evoked by agonists alone, pIC50=−log IC50, IC50 is the concentration of antagonist that produces half maximal inhibition, and n is the slope factor. […] For incomplete curves analysis by fitting was unreliable and IC50 values were calculated by simple regression over linear portions of the curves (Origin: Microcal Software).

[2] = molecular target: NMDA receptor subunits 1A/2A (NR1A+NR2A) (Rattus norvegicus, UniProt P35439+Q00959); test: Electrophysiological assay at cloned NMDA receptor subunits expressed in Xenopus oocytes, 1A/2A; format: cell-based; settings: cloned rat NMDA receptor in Xenopus oocytes, two-electrode voltage clamp, currents activated by glutamate and glycine; read-out: Subunits (IC50(μM)) 1A/2A
Sequence of NMDA receptor subunits 1A/2A (NR1A+NR2A) (Q00959 23-1464, other chains not shown): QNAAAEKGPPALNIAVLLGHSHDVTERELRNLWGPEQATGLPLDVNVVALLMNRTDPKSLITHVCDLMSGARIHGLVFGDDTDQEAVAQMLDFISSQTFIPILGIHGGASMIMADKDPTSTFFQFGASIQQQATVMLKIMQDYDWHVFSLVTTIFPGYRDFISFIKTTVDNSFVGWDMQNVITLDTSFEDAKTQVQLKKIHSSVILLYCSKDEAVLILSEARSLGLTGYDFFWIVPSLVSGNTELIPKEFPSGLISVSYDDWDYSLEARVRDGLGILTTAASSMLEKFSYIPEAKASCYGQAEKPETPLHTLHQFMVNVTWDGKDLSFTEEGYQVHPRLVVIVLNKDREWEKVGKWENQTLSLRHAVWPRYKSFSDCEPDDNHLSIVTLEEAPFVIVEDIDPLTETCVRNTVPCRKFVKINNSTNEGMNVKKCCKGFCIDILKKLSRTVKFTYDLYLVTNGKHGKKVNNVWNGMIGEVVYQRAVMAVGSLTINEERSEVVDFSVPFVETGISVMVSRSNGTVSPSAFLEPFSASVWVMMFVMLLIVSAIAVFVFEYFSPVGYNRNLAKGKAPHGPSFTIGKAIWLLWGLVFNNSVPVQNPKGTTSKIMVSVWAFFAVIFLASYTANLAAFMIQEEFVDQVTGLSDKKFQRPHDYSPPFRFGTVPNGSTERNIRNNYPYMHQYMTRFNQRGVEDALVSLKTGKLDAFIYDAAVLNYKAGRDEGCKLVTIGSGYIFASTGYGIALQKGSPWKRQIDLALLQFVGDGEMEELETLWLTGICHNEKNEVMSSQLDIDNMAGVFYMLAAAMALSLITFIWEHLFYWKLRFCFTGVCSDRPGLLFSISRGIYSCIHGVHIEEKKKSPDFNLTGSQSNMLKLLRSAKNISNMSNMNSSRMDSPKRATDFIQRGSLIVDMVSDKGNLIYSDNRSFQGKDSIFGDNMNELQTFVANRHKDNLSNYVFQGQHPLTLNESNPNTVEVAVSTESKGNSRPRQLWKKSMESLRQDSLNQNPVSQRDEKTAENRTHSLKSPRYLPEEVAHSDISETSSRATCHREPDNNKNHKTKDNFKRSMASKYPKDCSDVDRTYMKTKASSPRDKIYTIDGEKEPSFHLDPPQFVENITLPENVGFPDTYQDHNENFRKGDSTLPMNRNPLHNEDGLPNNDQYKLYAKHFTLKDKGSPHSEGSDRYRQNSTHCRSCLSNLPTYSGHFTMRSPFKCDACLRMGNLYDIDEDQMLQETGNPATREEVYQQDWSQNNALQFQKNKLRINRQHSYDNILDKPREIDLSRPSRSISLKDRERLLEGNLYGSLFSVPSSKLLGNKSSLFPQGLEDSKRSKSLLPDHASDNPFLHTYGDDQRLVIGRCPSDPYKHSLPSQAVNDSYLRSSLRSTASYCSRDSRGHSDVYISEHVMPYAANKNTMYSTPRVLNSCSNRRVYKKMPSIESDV
Method: as §1, §2, §3, §4, §5, §6, §7

[3] = tested on: maximal electroshock-induced seizures; test: Maximal electroshock-induced seizures (MES); format: in vivo, mice; settings: Mus musculus; mice, tonic hindlimb extensor response, 50 mA corneal electrodes; read-out: MES (ED50)
Method: Maximal Electroshock-induced Seizures
Seizures were induced by application of current (50 mA, 60 pulses/sec, 0.8 sec pulse width, 1 sec duration, d.c.) through saline-coated corneal electrodes using a Ugo Basile ECT device (Model 7801). […] A tonic seizure was defined as a hindlimb extension in excess of 90 degrees from the plane of the body. Results were treated in a quantal manner.

[4] = molecular target: NMDA receptor subunits 1A/2B (NR1A+NR2B) (Rattus norvegicus, UniProt P35439+Q00960); test: Electrophysiological assay at cloned NMDA receptor subunits expressed in Xenopus oocytes, 1A/2B; format: cell-based; settings: cloned rat NMDA receptor in Xenopus oocytes, two-electrode voltage clamp, currents activated by glutamate and glycine; read-out: Subunits (IC50(μM)) 1A/2B
Sequence of NMDA receptor subunits 1A/2B (NR1A+NR2B) (Q00960 27-1482, other chains not shown): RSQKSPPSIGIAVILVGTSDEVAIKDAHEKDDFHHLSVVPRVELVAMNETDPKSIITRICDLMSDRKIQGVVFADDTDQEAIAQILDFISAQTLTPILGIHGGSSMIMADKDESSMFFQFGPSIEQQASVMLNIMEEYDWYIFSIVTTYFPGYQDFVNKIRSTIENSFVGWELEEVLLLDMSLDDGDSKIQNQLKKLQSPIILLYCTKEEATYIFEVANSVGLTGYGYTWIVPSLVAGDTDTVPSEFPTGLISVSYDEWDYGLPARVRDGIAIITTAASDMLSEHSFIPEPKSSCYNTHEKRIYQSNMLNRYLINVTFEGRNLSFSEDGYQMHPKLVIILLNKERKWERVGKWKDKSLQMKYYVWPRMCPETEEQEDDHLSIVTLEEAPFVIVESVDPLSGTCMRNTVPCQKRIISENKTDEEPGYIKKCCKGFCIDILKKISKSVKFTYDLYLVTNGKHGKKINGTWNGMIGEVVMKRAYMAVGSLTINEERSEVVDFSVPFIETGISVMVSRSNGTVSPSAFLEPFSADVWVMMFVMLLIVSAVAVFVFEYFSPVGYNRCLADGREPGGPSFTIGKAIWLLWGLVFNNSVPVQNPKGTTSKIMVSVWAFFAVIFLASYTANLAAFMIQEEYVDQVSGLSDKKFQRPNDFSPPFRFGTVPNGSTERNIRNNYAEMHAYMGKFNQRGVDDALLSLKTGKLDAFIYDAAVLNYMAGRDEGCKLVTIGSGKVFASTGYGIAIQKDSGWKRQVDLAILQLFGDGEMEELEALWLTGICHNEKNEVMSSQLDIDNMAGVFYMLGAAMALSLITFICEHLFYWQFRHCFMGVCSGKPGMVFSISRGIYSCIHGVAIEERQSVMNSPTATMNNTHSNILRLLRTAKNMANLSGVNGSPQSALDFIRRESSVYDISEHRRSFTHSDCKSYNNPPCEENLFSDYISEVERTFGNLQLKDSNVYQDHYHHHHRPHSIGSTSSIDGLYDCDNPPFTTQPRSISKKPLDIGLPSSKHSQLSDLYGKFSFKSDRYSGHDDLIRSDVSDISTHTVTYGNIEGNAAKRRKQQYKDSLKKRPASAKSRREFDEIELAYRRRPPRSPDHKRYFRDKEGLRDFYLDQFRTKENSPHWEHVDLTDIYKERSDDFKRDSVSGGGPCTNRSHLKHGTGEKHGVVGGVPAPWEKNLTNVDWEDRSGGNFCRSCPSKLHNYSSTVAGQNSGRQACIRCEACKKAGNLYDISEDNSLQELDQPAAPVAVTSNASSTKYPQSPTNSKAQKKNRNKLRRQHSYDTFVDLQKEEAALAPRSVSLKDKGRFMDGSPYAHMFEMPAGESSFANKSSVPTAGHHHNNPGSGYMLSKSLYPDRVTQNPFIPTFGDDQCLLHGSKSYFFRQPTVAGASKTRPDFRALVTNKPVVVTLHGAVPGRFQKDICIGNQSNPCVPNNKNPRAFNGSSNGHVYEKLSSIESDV
Method: as §1, §2, §3, §4, §5, §6, §7

[5] = molecular target: NMDA receptor subunits 1A/2D (NR1A+NR2D) (Rattus norvegicus, UniProt P35439+Q62645); test: Electrophysiological assay at cloned NMDA receptor subunits expressed in Xenopus oocytes, 1A/2D; format: cell-based; settings: two-electrode voltage clamp, currents activated by glutamate and glycine
Sequence of NMDA receptor subunits 1A/2D (NR1A+NR2D) (Q62645 28-1323, other chains not shown): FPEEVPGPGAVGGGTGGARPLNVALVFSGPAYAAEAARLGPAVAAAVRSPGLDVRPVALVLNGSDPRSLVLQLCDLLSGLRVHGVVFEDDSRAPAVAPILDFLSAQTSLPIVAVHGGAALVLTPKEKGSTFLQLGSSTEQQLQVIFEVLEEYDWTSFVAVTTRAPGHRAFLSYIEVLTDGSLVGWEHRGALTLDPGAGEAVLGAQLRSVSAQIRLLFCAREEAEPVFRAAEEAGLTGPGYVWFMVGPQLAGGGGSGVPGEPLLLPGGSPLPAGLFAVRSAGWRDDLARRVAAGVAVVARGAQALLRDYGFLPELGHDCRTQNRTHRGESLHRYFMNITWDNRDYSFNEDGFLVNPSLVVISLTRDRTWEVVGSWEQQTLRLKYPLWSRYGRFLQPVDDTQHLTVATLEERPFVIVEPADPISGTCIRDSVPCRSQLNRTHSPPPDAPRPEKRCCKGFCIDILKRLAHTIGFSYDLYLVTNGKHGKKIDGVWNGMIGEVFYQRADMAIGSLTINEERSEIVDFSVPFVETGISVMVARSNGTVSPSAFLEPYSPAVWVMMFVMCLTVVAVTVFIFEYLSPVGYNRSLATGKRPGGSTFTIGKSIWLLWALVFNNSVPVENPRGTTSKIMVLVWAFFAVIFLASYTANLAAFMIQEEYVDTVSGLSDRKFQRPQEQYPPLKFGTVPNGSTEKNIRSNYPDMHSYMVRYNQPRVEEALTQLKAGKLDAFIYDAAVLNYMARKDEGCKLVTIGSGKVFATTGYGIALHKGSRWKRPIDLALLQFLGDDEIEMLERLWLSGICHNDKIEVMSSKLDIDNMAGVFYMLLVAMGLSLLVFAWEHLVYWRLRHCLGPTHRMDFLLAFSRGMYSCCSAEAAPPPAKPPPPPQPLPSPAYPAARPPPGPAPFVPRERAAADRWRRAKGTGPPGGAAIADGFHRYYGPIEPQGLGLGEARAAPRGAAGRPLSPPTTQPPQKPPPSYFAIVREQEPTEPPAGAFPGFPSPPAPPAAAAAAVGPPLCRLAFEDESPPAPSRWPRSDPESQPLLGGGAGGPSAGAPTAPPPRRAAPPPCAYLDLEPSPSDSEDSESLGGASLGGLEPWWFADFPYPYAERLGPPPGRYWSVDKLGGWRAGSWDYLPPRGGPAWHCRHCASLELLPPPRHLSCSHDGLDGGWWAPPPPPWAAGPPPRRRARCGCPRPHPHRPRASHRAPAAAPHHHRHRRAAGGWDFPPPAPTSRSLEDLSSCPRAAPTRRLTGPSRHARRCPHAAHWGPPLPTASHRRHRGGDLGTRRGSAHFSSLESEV
From the text: Electrophysiological Assays at NMDA Receptor Subunits […]
cDNA clones encoding the NR1A, NR2A, NR2B, NR2C and NR2D rat NMDA receptor subtypes were provided by Dr. P. H. Seeburg (see, Morivoshi et al., Nature (Lond.) 354:31-37 (1991); Kutsuwada et al., Nature (Lond.) 358:36-41 (1992) Monyer et al., Science (Washington. D.C.) 256:1217-1221 (1992); Ikeda et al., FEBS Lett. 313:34-38 (1992); Ishii et al., J. Biol. Chem. 268:2836-2843 (1993) for details of these clones or their mouse homologs). The clones were transformed into appropriate host bacteria and plasmid preparations were made with conventional DNA purification techniques. A sample of each clone was linearized by restriction enzyme digestion and cRNA was synthesized with T3 RNA polymerase. The cRNA was diluted to 400 ng/μl and stored in 1 μl aliquots at −80° C. until injection.
The Xenopus oocyte Expression System […]
Electrical recordings were made using a conventional two-electrode voltage clamp (Dagan TEV-200) over periods ranging between 3-14 days following injection. […] Inhibitory potency of the novel antagonists was assessed on responses elicited by fixed concentrations of glutamate and glycine, by measuring reductions in current induced by progressively increasing concentrations of antagonists. […]

Compound: CCOc1ccccc1OCC1CCCCN1CCCOc1ccccc1 (stereo not drawn) [Example 17, 2-[(2-Ethoxy)phenyoxy]methyl-1-(3-phenoxy)propylpiperidine]
- IC50 [1]: 110 µM
- IC50 [2]: 13 µM
- ED50 [3]: 1 mg/kg
- IC50 [4]: 35 µM
- IC50 [5]: > 300 µM

Compound: Cc1ccccc1OCC(O)CN1CCCCC1Cc1ccccc1 (stereo not drawn) [Example 18, 2-Benzyl-1-[2-hydroxy-3-(2-methyl)phenoxy]propylpiperidine]
- IC50 [1]: > 100 µM
- IC50 [2]: 23 µM
- IC50 [4]: 50 µM
- IC50 [5]: > 300 µM
